Patent publication US20110034397A1, “INTESTINAL IMMUNE SYSTEM STIMULATOR” (priority 2008, published 2011)

What was measured:
BALB/c male mice = assay type: in vivo, mouse; conditions: relative index, non-administered control group = 1, 10 mg/kg B.W./day by gavage, 7 days
Protocol: Five-week-old BALB/c male mice (n=6) were fed for 1 week and then used in this experiment. A commercially-available feed was used, and the mice' access to the feed was unrestricted, and tap water was provided. γ-Glutamylcysteine was dissolved in sterilized physiological saline, and gavage administration was performed at 10 mg/kg B.W./day. The administration period was 7 days. During the administration period, the body weights were measured every day immediately before the administration to determine the dosage. There was no difference between the body weights of the different groups. On day 7 after the start of the test, a necropsy examination was performed. Anesthesia was performed by interperitoneal administration with a pentobarbital formulation. At laparotomy, blood was collected from the abdominal aorta. The small intestinal contents were also collected. Serum was collected from the blood, and the total IgA and total IgG concentrations were measured using an ELISA kit. The intestinal contents were diluted 10-fold with PBS and suspended sufficiently, and centrifugation was then performed to separate the […]. The total IgA concentration was measured by ELISA in the same way as in Example 1. In the table, γ-EC represents γ-glutamylcysteine. […] However, the amounts of serum IgA and serum IgG were found not to increase, and it was confirmed that the peptide was able to stimulate the immunoactivity in the intestinal mucosa.

mouse spleen cells [1] = assay: Antibody production by mouse spleen cells stimulated with LPS (ELISA of culture supernatant); assay type: cell-based; conditions: 5 μg LPS, cultured 5 days, versus phosphate buffer control, FIG. 1
Protocol: Six- to eight-week-old BALB mice (female) were fed for 1 week a commercially-available solid feed and provided with tap water. To evaluate the influence of γ-glutamylcysteine on antibody production, a culture system using mouse spleen cells was employed. The spleen cells were collected from the BALB-c mice (n=3), then washed and suspended in RPMI 1640 medium (10% FCS, 50 U/ml penicillin, 50 μg/ml streptomycin). The cells were adjusted so that there were 1×10^6 cells per 48-well culture plate, and then either γ-glutamylcysteine or glutathione (purchased from Sigma) each dissolved in a phosphate buffer, was added to the plates. A phosphate buffer was added to plates as a control. Then, the cells were stimulated with 5 μg of LPS (lipopolysaccharide, obtained from Sigma). […] The cells were then cultured in a CO2 incubator at 37° C. for 5 days, and the amounts of the antibodies in the supernatant were analyzed. The amounts of IgA and IgG were measured by the ELISA method. […] The reaction was stopped with 100 μl of 3 M NaOH/well, and the absorbance was measured at 405 nm. IgA was measured in accordance with the same method as for IgG except that a rat anti-mouse IgA antibody (BD Biosciences) was used as the immobilized antibody. […]

mouse spleen cells [2] = assay: Antibody production by mouse spleen cells stimulated with ConA (ELISA of culture supernatant); assay type: cell-based; conditions: 0.5 μg ConA, cultured 5 days, versus control, FIG. 3
Protocol: Six- to eight-week-old BALB mice (female) were fed for 1 week a commercially-available solid feed and provided with tap water. To evaluate the influence of γ-glutamylcysteine on antibody production, a culture system using mouse spleen cells was employed. The spleen cells were collected from the BALB-c mice (n=3), then washed and suspended in RPMI 1640 medium (10% FCS, 50 U/ml penicillin, 50 μg/ml streptomycin). The cells were adjusted so that there were 1×10^6 cells per 48-well culture plate, and then either γ-glutamylcysteine or glutathione (purchased from Sigma) each dissolved in a phosphate buffer, was added to the plates. A phosphate buffer was added to plates as a control. […] The cells were again adjusted so that there were 1×10^6 cells per 48-well culture plate, and then stimulated with 0.5 μg of ConA (concanavalin A) in the presence or absence of γ-glutamylcysteine or glutathione. The cells were then cultured in a CO2 incubator at 37° C. for 5 days, and the amounts of the antibodies in the supernatant were analyzed. The amounts of IgA and IgG were measured by the ELISA method. The method for measuring IgG is described below. […] The reaction was stopped with 100 μl of 3 M NaOH/well, and the absorbance was measured at 405 nm. IgA was measured in accordance with the same method as for IgG except that a rat anti-mouse IgA antibody (BD Biosciences) was used as the immobilized antibody. […]

SMILES: N[C@@H](CCC(=O)N[C@@H](CS)C(=O)O)C(=O)O [γ-glutamylcysteine, γ-Glutamylcysteine]
- Serum IgA (BALB/c male mice): 0.3
- Serum IgG (BALB/c male mice): 0.6
- Small intestine IgA (BALB/c male mice; total IgA in small intestinal contents): 3.0
- amounts of IgA produced (mouse spleen cells [1]): increase production of IgA as compared with glutathione
- amounts of IgA produced (mouse spleen cells [2]): increase production of IgA as compared with glutathione
